The source of these data is ChEMBL document CHEMBL1128104, “A bis-[N-3-(1-hydroxy-1-methyl-ethyl)-benzyl)-cyclic urea as a HIV protease inhibitor” (Bioorg Med Chem Lett, 1995).

Series [1] has as its target Human immunodeficiency virus type 1 protease (Human immunodeficiency virus 1, UniProt Q72874). Briefly: Tested for inhibitory activity against HIV protease.
Series [2] has as its system Lymphocytoid cell line. Description: Tested for cytotoxicity (concentration required to reduce 50% of the viable cell population) in presence of metabolizable tetrazolium dye in human lymphocytoid cell lines MT-2 or MT-4 using the RF strain of HIV-1. Type of series: functional. To be noted: read-out: TC50 (the source's name).
For series [3], the system named is Lymphocytoid cell line. Description: Tested for the ability to inhibit viral replication (HIV-1 RNA) in human lymphocytoid cell lines MT-2 or MT-4 using the RF strain of HIV-1. Type of series: functional.
Series [4] in a line: Tested for t1/2 upon intravenous administration of 5.0 mg/Kg dose in rat. The class given is ADME, organism-based. To be noted: in vivo.
Series [5] in a line: Tested for volume of distribution at steady state upon intravenous administration of 5.0 mg/Kg dose in rat. Type of series: ADME, organism-based. Particulars: in vivo, read-out: Vss.
Series [6] in a line: Cmax in plasma was determined upon peroral administration of 10.0 mg/Kg dose in rat. The class given is ADME, organism-based. On the set-up: dose 10 mg/Kg, route oral. Particulars: po.
Series [7] has as its system Human immunodeficiency virus 1. Description: Tested for the ability to block cleavage of HIV-1 gag polyprotein using [35S]methionine-labeled ligand. The class given is functional, organism-based.
The nature of series [8]: Tested for systemic clearance upon intravenous administration of 5.0 mg/Kg dose in rat. Type of series: ADME, organism-based. To be noted: in vivo.
Series [9] in a line: Tested for volume of distribution at steady state upon intravenous administration of 5.0 mg/Kg dose in dog. Particulars: in vivo, read-out: Vss. Type of series: ADME, organism-based, Canis lupus familiaris.
Series [10] in a line: Bioavailability in dog (dose 10.0 mg/kg p.o.). Type of series: ADME, organism-based, Canis lupus familiaris. To be noted: in vivo, po.
Series [11] is described as follows: tmax upon peroral administration of 10.0 mg/Kg dose in dog. The class given is ADME, organism-based, Canis lupus familiaris. To be noted: in vivo, po.
Series [12] is described as follows: Tested for t1/2 upon peroral administration of 10.0 mg/Kg dose in rat. Type of series: ADME, organism-based. Particulars: in vivo, po.
Series [13] in a line: Tested for t1/2 upon intravenous administration of 5.0 mg/Kg dose in dog. The class given is ADME, organism-based, Canis lupus familiaris. Particulars: in vivo.
Series [14] has as its system Human immunodeficiency virus. Briefly: Ability to inhibit p24 mutant variant […] was determined. Type of series: functional. Particulars: Human immunodeficiency virus 1.
The subject of series [15] is Human immunodeficiency virus. Briefly: Ability to inhibit p24 mutant variant HxB2 wild type was determined. Particulars: Human immunodeficiency virus 1. Type of series: functional.
The nature of series [16]: Tested for systemic clearance upon intravenous administration of 5.0 mg/Kg dose in dog. Type of series: ADME, organism-based, Canis lupus familiaris. Particulars: in vivo.
For series [17], the system named is Human immunodeficiency virus. Description: Ability to inhibit p24 mutant variant V82F was determined. Type of series: functional. To be noted: Human immunodeficiency virus 1.
Series [18] in a line: Cmax in plasma was determined upon peroral administration of 10.0 mg/Kg dose in dog. The class given is ADME, organism-based, Canis lupus familiaris. On the set-up: dose 10 mg/Kg, route oral. To be noted: po.
Series [19] in a line: Tested for t1/2 upon peroral administration of 10.0 mg/Kg dose in dog. Type of series: ADME, organism-based, Canis lupus familiaris. Particulars: in vivo, po.
Series [20] has as its system Human immunodeficiency virus. Briefly: Ability to inhibit p24 mutant variant V82F/[…] was determined. The class given is functional. Particulars: Human immunodeficiency virus 1.
A short description of series [21]: Bioavailability upon peroral administration of 10.0 mg/Kg dose in rat. Type of series: ADME, organism-based. To be noted: in vivo, po, read-out: Bioavailabiility.
Series [22] can be described thus: tmax upon peroral administration of 10.0 mg/Kg dose in rat. The class given is ADME, organism-based. Particulars: in vivo, po.

Each structure is given as a SMILES string.

The term Ki denotes the equilibrium dissociation constant of an inhibitor or competing ligand from its target. Low readings indicate higher affinity, high ones lower affinity. For orientation: IC90 means the point of the concentration-response curve where the effect stands at 90%. A high value points to a need for much substance. `CC(C)(O)c1ccc(CN2C(=O)N(Cc3ccc(C(C)(C)O)cc3)[C@H](Cc3ccccc3)[C@H](O)[C@@H](O)[C@H]2Cc2ccccc2)cc1` displayed a Ki in series [1] of 2.2 nM. Moreover, the CC50 in the series on Lymphocytoid cell line [2] was 39300 nM. This molecule also came in with an IC90 with Lymphocytoid cell line [3] of 8040 nM.
For orientation: half-life means the time in which the quantity being followed falls by half. A higher half-life goes with slow decline. As usually defined, the Cmax is the peak of the concentration-time curve. What is called IC50 is the concentration at which inhibition is half-maximal. By clearance is commonly meant a measure of how efficiently the substance is removed, as volume per time. A lower clearance goes with inefficient removal. In the case of `O=C1N(Cc2cccc(CO)c2)[C@H](Cc2ccccc2)[C@H](O)[C@@H](O)[C@@H](Cc2ccccc2)N1Cc1cccc(CO)c1`, the half-life in series [4] was 1.1 h. For the same molecule, the Vd in series [5] amounted to 9.8 L/kg. The molecule also displayed a Cmax in [6] of 470 ng/mL. The same molecule yielded an IC50 in series [7] of 7.9 nM. The Ki in series [1] was 0.4 nM. In the series on Lymphocytoid cell line [2], the CC50 was 54700 nM. The clearance in [8] was 103 mL/min/kg. Also, in the series on Lymphocytoid cell line [3], the 90% effect level (IC90) was put at 38.8 nM.
As a reminder, the Tmax is the time from dosing to the highest level. With `CC(C)(O)c1cccc(CN2C(=O)N(Cc3cccc(C(C)(C)O)c3)[C@H](Cc3ccccc3)[C@H](O)[C@@H](O)[C@H]2Cc2ccccc2)c1`, the half-life in series [4] was 1.03 h; in series [12], 1.5 h; in series [13], 1.2 h; in series [19], 0.65 h. Moreover, the Vd was 1.65 L/kg in series [9] and 3.04 L/kg in series [5]. For the same molecule, the bioavailability in [10] was < 4%. The Cmax in series [6] was 630 ng/mL; in [18] it was 240 ng/mL. This molecule also gave an IC50 in series [7] of 15 nM. The Tmax in [11] worked out at 0.42 h. In series [1], this molecule yielded a Ki of 0.067 nM. Moreover, the CC50 in the series with Lymphocytoid cell line [2] came out at 33400 nM. For the same molecule, the clearance in series [8] is 31.8 mL/min/kg; in series [16], 15.5 mL/min/kg. The IC90 in series [14] stood at 72.2 nM; in series [15], 22.2 nM; in series [17] it was 84.3 nM; in the series with Lymphocytoid cell line [3] it was 33.7 nM; in series [20] it was 5780 nM.
On to `O=C1N(Cc2ccc(CO)cc2)[C@H](Cc2ccccc2)[C@H](O)[C@@H](O)[C@@H](Cc2ccccc2)N1Cc1ccc(CO)cc1` [DMP-323], for which the results for the bioavailability in series [21] and in [10] were 27.1% and 38.4%, respectively. In addition, the half-life in [4] is 0.95 h; in [12] it was 1.5 h; in series [13] it was 1.8 h; in series [19] it was 1.08 h. The figures for the Vd in series [9] and in series [5] were 2.28 L/kg and 6.36 L/kg, respectively. The time to peak (Tmax) in series [22] is 0.25 h; in [11] it was 0.5 h. In addition, the maximum concentration (Cmax) in series [6] was found to be 450 ng/mL; in series [18] it was 1480 ng/mL. The same molecule yielded an IC50 in series [7] of 35.7 nM. For the same molecule, the Ki in [1] is 0.31 nM. In the series on Lymphocytoid cell line [2], the CC50 came out at 67500 nM. Further, the values for the clearance in [8] and in series [16] were 119 mL/min/kg and 24.7 mL/min/kg, respectively. Further, the IC90 worked out at 989 nM in series [14]; 95.6 nM in [15]; 675 nM in [17]; 176 nM in the series on Lymphocytoid cell line [3]; 22000 nM in series [20].
